Assay results from ChEMBL document CHEMBL5518162, “Design, synthesis, and biological evaluation of 2-amino-6-methyl-phenol derivatives targeting lipid peroxidation with potent anti-ferroptotic activities” (Eur J Med Chem, 2024).
Activity calls are given as the source filed them. No cut-off for these calls is given here.

Tests used:
HT-1080 [1] = assay: Anti-ferroptotic activity against RSL3-induced ferroptosis in human HT-1080 cells assessed as inhibition of ferroptosis incubated for 24 hrs by CCK-8 assay; format: functional, cell-based; details: HT-1080, 24 h
[2] = Antioxidant activity assessed as DPPH radical scavenging activity at 10 uM; format: functional
HT-1080 [3] = assay: Anti-ferroptotic activity against RSL3-induced ferroptosis in human HT-1080 cells assessed as […] incubated for 24 hrs by CCK-8 assay; format: functional, cell-based; details: dose 0.1-1 µM
HT-1080 [4] = assay: Anti-ferroptotic activity against erastin-induced ferroptosis in human HT-1080 cells assessed as […] incubated for 24 hrs by CCK-8 assay; format: functional, cell-based
HT-1080 [5] = assay: Anti-ferroptotic activity against RSL3-induced ferroptosis in human HT-1080 cells assessed as preservation of cell viability above […] incubated for 24 hrs by CCK-8 assay; format: functional, cell-based
HT-1080 [6] = assay: Anti-ferroptotic activity against erastin-induced ferroptosis in human HT-1080 cells assessed as preservation of cell viability above […] incubated for 24 hrs by CCK-8 assay; format: functional, cell-based
HT-1080 [7] = assay: Anti-ferroptotic activity against RSL3-induced ferroptosis in human HT-1080 cells assessed as reduction in cell viability at 250 nM incubated for 24 hrs by CCK-8 assay; format: functional
HT-1080 [8] = assay: Anti-ferroptotic activity against erastin-induced ferroptosis in human HT-1080 cells assessed as reduction in cell viability at 250 nM incubated for 24 hrs by CCK-8 assay; format: functional
HT-1080 [9] = assay: Anti-ferroptotic activity against RSL3-induced ferroptosis in human HT-1080 cells assessed as reduction in cell death at 100 nM incubated for 24 hrs by CCK-8 assay; format: functional, cell-based
HT-1080 [10] = assay: Anti-ferroptotic activity against erastin-induced ferroptosis in human HT-1080 cells assessed as reduction in cell death at 100 nM incubated for 24 hrs by CCK-8 assay; format: functional, cell-based
HT-1080 [11] = assay: Anti-ferroptotic activity against ML210-induced ferroptosis in human HT-1080 cells assessed as reduction in cell death at 100 nM incubated for 24 hrs by CCK-8 assay; format: functional, cell-based
HT-1080 [12] = assay: Anti-ferroptotic activity against FIN56-induced ferroptosis in human HT-1080 cells assessed as reduction in cell death at 100 nM incubated for 24 hrs by CCK-8 assay; format: functional, cell-based
HT-1080 [13] = assay: Anti-ferroptotic activity against BSO-induced ferroptosis in human HT-1080 cells assessed as […] at 100 nM incubated for 24 hrs by CCK-8 assay; format: functional, cell-based
Huh-7 = assay: Anti-ferroptotic activity against RSL3-induced ferroptosis in human Huh-7 cells assessed as […] at 100 nM incubated for 24 hrs by CCK-8 assay; format: functional, cell-based
HeLa = assay: Anti-ferroptotic activity against RSL3-induced ferroptosis in human HeLa cells assessed as […] at 100 nM incubated for 24 hrs by CCK-8 assay; format: functional, cell-based
HTR-8/SVneo = assay: Anti-ferroptotic activity against RSL3-induced ferroptosis in human HTR-8/SVneo cells assessed as […] at 100 nM incubated for 24 hrs by CCK-8 assay; format: functional, cell-based
HepG2 = assay: Anti-ferroptotic activity against RSL3-induced ferroptosis in human HepG2 cells assessed as […] at 100 nM incubated for 24 hrs by CCK-8 assay; format: functional, cell-based
HT-1080 [14] = assay: Suppression of RSL-3 induced lipid ROS generation in human HT-1080 cells assessed as decrease in STY-BODIPY oxidation at 100 nM by C11-BODIPY581/591 staining based confocal microscopy; format: functional, cell-based
HT-1080 [15] = assay: Suppression of RSL-3 induced lipid ROS generation in human HT-1080 cells assessed as decrease in STY-BODIPY oxidation at 100 nM by C11-BODIPY581/591 staining based flow cytometry analysis; format: functional, cell-based
HT-1080 [16] = assay: Suppression of RSL3-induced malondialdehyde adducts accumulation in human HT-1080 cells at 100 nM by lipid peroxidation (MDA) assay; format: functional, cell-based
HT-1080 [17] = assay: Effect on TFRC level in RSL3-induced human HT-1080 cells by measuring mRNA level by qRT-PCT analysis; format: functional, cell-based
HT-1080 [18] = assay: Effect on DMT1 level in RSL3-induced human HT-1080 cells by measuring mRNA level by qRT-PCT analysis; format: functional, cell-based
HT-1080 [19] = assay: Effect on FTH1 level in RSL3-induced human HT-1080 cells by measuring mRNA level by qRT-PCT analysis; format: functional, cell-based
HT-1080 [20] = assay: Effect on ACSL4 level in RSL3-induced human HT-1080 cells by measuring mRNA level by qRT-PCT analysis; format: functional, cell-based
HT-1080 [21] = assay: Effect on GPX4 level in RSL3-induced human HT-1080 cells by measuring mRNA level by qRT-PCT analysis; format: functional, cell-based
HT-1080 [22] = assay: Effect on SLC7A11 level in RSL3-induced human HT-1080 cells by measuring mRNA level by qRT-PCT analysis; format: functional, cell-based
HT-1080 [23] = assay: Effect on TFRC level in unstimulated human HT-1080 cells by measuring mRNA level by qRT-PCT analysis; format: functional, cell-based
HT-1080 [24] = assay: Effect on DMT1 level in unstimulated human HT-1080 cells by measuring mRNA level by qRT-PCT analysis; format: functional, cell-based
HT-1080 [25] = assay: Effect on FTH1 level in unstimulated human HT-1080 cells by measuring mRNA level by qRT-PCT analysis; format: functional, cell-based
HT-1080 [26] = assay: Effect on ACSL4 level in unstimulated human HT-1080 cells by measuring mRNA level by qRT-PCT analysis; format: functional, cell-based
HT-1080 [27] = assay: Effect on GPX4 level in unstimulated human HT-1080 cells by measuring mRNA level by qRT-PCT analysis; format: functional, cell-based
HT-1080 [28] = assay: Effect on SLC7A11 level in unstimulated human HT-1080 cells by measuring mRNA level by qRT-PCT analysis; format: functional, cell-based
Mus musculus [29] = assay: (§1) Protection of kidney in ischemia-reperfusion-induced kidney injury C57BL/6Nj mouse model assessed as reduction of serum creatinine level at 10 mg/kg, ip pretreated for 1 hr followed by bilateral artery clamping for 45 mins and measured after 24 hrs; format: functional, organism-based
Mus musculus [30] = assay: Protection of kidney in ischemia-reperfusion-induced kidney injury C57BL/6Nj mouse model assessed as reduction of blood urea nitrogen level at 10 mg/kg, ip pretreated for 1 hr followed by bilateral artery clamping for 45 mins and measured after 24 hrs; format: functional, organism-based
Mus musculus [31] = assay: (§2) Protection of kidney in ischemia-reperfusion-induced kidney injury C57BL/6Nj mouse model assessed as focal eosinophilic degeneration of renal tubular epithelial cells in the extra medullary zone at 10 mg/kg, ip pretreated for 1 hr followed by bilateral artery clamping for 45 mins and measured after 24 hrs by hematoxylin and eosin staining based analysis; format: functional, organism-based; details: time 1545.0 min
Mus musculus [32] = assay: as §2, with “necrosis” for “eosinophilic degeneration”, “and nuclear fixation” for “in the extra medullary zone”; format: functional, organism-based; details: time 1545.0 min
Mus musculus [33] = assay: as §1, with “prevention” for “reduction”, “[…] by measuring 4-HNE” for “serum creatinine level”, “hrs by immunohistochemistry staining based analysis” for “hrs”; format: functional, organism-based; details: time 1545.0 min

## COC(=O)c1ccc(CNc2cccc(C)c2O)cc1
HT-1080 [1]
  EC50: 164 nM
[2]
  Activity: Active

## CCNc1cccc(C)c1O
HT-1080 [1]
  EC50: 60.4 nM
[2]
  Activity: Active

## COc1c(C)cccc1N
HT-1080 [1]
  EC50: > 10000 nM
[2]
  Activity: Active

## Cc1cccc(NCc2ccccc2)c1O
HT-1080 [1]
  EC50: 181 nM
[2]
  Activity: Active

## COc1ccc(CNc2cccc(C)c2O)cc1
HT-1080 [1]
  EC50: 78.9 nM
[2]
  Activity: Active

## Cc1cccc(N)c1O
HT-1080 [1]
  EC50: 207 nM
HT-1080 [3]
  Activity: Dose-Dependent Effect
HT-1080 [4]
  Activity: Dose-Dependent Effect
HT-1080 [4]; HT-1080, 24 h
  EC50: 132 nM
HT-1080 [5]
  Activity: Active
HT-1080 [6]
  Activity: Active
[2]
  Activity: Active
HT-1080 [7]
  Activity: 100%
HT-1080 [8]
  Activity: 100%

## Cc1cccc([N+](=O)[O-])c1O
HT-1080 [1]
  EC50: > 10000 nM
[2]
  Activity: Active

## Cc1cccc(NCc2cccc(C#N)c2)c1O
HT-1080 [1]
  EC50: 158 nM
[2]
  Activity: Active

## Cc1ccc(CNc2cccc(C)c2O)cc1
HT-1080 [1]
  EC50: 25.5 nM
HT-1080 [9]
  Activity: Active
HT-1080 [10]
  Activity: Active
HT-1080 [11]
  Activity: Active
HT-1080 [12]
  Activity: Active
HT-1080 [13]
  Activity: Active
Huh-7
  Activity: Active
HeLa
  Activity: Active
HTR-8/SVneo
  Activity: Active
HepG2
  Activity: Active
HT-1080 [14]
  Activity: Active
HT-1080 [15]
  Activity: Active
HT-1080 [16]
  Activity: Active
HT-1080 [17]
  Activity: inactive
HT-1080 [18]
  Activity: inactive
HT-1080 [19]
  Activity: inactive
HT-1080 [20]
  Activity: inactive
HT-1080 [21]
  Activity: inactive
HT-1080 [22]
  Activity: inactive
HT-1080 [23]
  Activity: inactive
HT-1080 [24]
  Activity: inactive
HT-1080 [25]
  Activity: inactive
HT-1080 [26]
  Activity: inactive
HT-1080 [27]
  Activity: inactive
HT-1080 [28]
  Activity: inactive
[2]
  Activity: Active
Mus musculus [29]
  Activity: Active
Mus musculus [30]
  Activity: Active
Mus musculus [31]
  Activity: Active
Mus musculus [32]
  Activity: Active
Mus musculus [33]
  Activity: Active

## Cc1cccc(N)c1OCc1ccccc1
HT-1080 [1]
  EC50: > 10000 nM
[2]
  Activity: Active

## Cc1cccc(NCc2cccc([N+](=O)[O-])c2)c1O
HT-1080 [1]
  EC50: 149 nM
[2]
  Activity: Active

## CCOC(=O)c1ccc(NC2CCCCC2)c(N)c1
HT-1080 [1]
  EC50: 138 nM
HT-1080 [14]
  Activity: Active
HT-1080 [15]
  Activity: Active
[2]
  Activity: Active

## Nc1cccc(C(=O)O)c1O
HT-1080 [1]
  EC50: > 10000 nM
[2]
  Activity: Active

## Cc1cccc(NCc2ccc(Cl)cc2)c1O
HT-1080 [1]
  EC50: 131 nM
HT-1080 [14]
  Activity: Active
HT-1080 [15]
  Activity: Active
HT-1080 [16]
  Activity: Active
HT-1080 [17]
  Activity: inactive
HT-1080 [18]
  Activity: inactive
HT-1080 [19]
  Activity: inactive
HT-1080 [20]
  Activity: inactive
HT-1080 [21]
  Activity: inactive
HT-1080 [22]
  Activity: inactive
HT-1080 [23]
  Activity: inactive
HT-1080 [24]
  Activity: inactive
HT-1080 [25]
  Activity: inactive
HT-1080 [26]
  Activity: inactive
HT-1080 [27]
  Activity: inactive
HT-1080 [28]
  Activity: inactive
[2]
  Activity: Active

## CCCCNc1cccc(C)c1O
HT-1080 [1]
  EC50: 74.7 nM
HT-1080 [14]
  Activity: Active
HT-1080 [15]
  Activity: Active
HT-1080 [16]
  Activity: Active
HT-1080 [17]
  Activity: inactive
HT-1080 [18]
  Activity: inactive
HT-1080 [19]
  Activity: inactive
HT-1080 [20]
  Activity: inactive
HT-1080 [21]
  Activity: inactive
HT-1080 [22]
  Activity: inactive
HT-1080 [23]
  Activity: inactive
HT-1080 [24]
  Activity: inactive
HT-1080 [25]
  Activity: inactive
HT-1080 [26]
  Activity: inactive
HT-1080 [27]
  Activity: inactive
HT-1080 [28]
  Activity: inactive
[2]
  Activity: Active

## CC(=O)c1cccc(N)c1O
HT-1080 [1]
  EC50: > 10000 nM
[2]
  Activity: Active
